Usually IC50 stands for the concentration at which inhibition is half-maximal.

In brackets after ≈: the same amount, converted by molar mass. Like-named read-outs stand apart in the source and are kept apart here.

Assay [1] deals with human red blood cells (HRBC) membrane. The assay can be described thus: HRBC membrane stabilization (heat-induced hemolysis). The note with it: Erythrocyte, read-out: HRBC membrane stabilization IC50. In kind it is cell-based. On the procedure: (1) Erythrocyte Suspension. With few modifications, the erythrocyte suspension was prepared using the technique outlined by Pieroni et al.. Healthy human volunteers provided the blood sample, which was centrifuged for 10 minutes at 1500 rpm. The red blood cell (RBC) pallet was washed three times with PBS (pH 7.4) following centrifugation. The buffy coat and supernatant liquid were aspirated out following each wash. The RBCs were resuspended in PBS at a concentration of 20% (v/v). (2) Heat-Induced Hemolysis. The method explained by Gunathilake et al. was used to determine the heat-induced hemolysis with some modifications. […] Then, the mixture was incubated for 20 minutes at 54°C in the water bath with continuous shaking. The mixture was incubated and centrifuged at 2500 rpm for 3 minutes. By using a UV spectrophotometer, the absorbance of supernatant was measured at 540 nm. In the experiment, PBS will be used as blank.

The nature of assay [2]: Ferrous (Fe2+) ion chelating activity. Format: biochemical. The note with it: ethanolic leaf extract 100-2000 μg/mL; mean ± SEM. An excerpt:
(§1) The antioxidant activity of twelve plant extracts was estimated by using various methods, including (2, 2-diphenyl-1-picrylhidrazyl) DPPH free radical scavenging activity, ferrous (Fe^2+) ion chelating agent, ferric (Fe^3+) ion reducing power, nitric oxide (NO^−) scavenging activity, hydroxyl radical scavenging activity, hydrogen peroxide scavenging activity, and total antioxidant activity.

Assay [3] in a line: Hydrogen peroxide scavenging activity. Format: biochemical. The note with it: ethanolic leaf extract 100-2000 μg/mL; mean ± SEM.
Description: as §1

Assay [4] in a line: DPPH free radical scavenging activity. Format: biochemical. The note with it: ethanolic leaf extract 100-2000 μg/mL; mean ± SEM.
Description: as §1

Assay [5] is described as follows: Hydroxyl radical scavenging activity. In kind it is biochemical. The note with it: ethanolic leaf extract 100-2000 μg/mL; mean ± SEM.
Description: as §1

Assay [6] in a line: Ferric (Fe3+) ion reducing power. Format: biochemical. The note with it: ethanolic leaf extract 100-2000 μg/mL; mean ± SEM. On the procedure: as §1
The ferric ion-reducing antioxidant power assay of twelve plant extracts was carried out. The activity was confirmed when the color of the solution was changed from yellow to green and Prussian blue based on the reduction property of extracts and standard, which was measured at 700 nm wavelength using a UV spectrophotometer. The absorbance value was increased with the increasing concentration of plant extract (Table 4).

Assay [7] in a line: Total antioxidant activity (phosphomolybdenum). In kind it is biochemical. The note with it: ethanolic leaf extract 100-2000 μg/mL; mean ± SEM.
Description: as §1

The nature of assay [8]: Nitric oxide (NO) scavenging activity. The note with it: ethanolic leaf extract 100-2000 μg/mL; mean ± SEM. Format: biochemical.
Description: as §1

Another assay has as its system rats. The arrangement: method as in PMID 32061742. The note with it: rats, 25, 50, and 100 mg/kg; ref [7]; cited from earlier work.
[9] abbreviates: ethanolic leaf extract 100-2000 μg/mL.

On to `COc1ccc2c(c1)c(CC(=O)O)c(C)n2C(=O)c1ccc(Cl)cc1` [Indomethacin, indomethacin], for which the IC50 in assay [1] turned out to be 7.14 ± 0.31 µg/mL (≈ 20 µM).
With `Cc1cc(C(C)(C)C)c(O)c(C(C)(C)C)c1` [BHT, Butylated Hydroxyl Toulene], the “Ferrous ion chelating IC50” value in assay [2] is given as 2.81 ± 0.82 µg/mL. For the same compound, in assay [3], the “H2O2 scavenging IC50” value came to 2.89 ± 0.32 µg/mL. Also, in [4], the “DPPH scavenging IC50” value worked out at 2.90 ± 0.51 µg/mL. Moreover, the “Hydroxyl radical scavenging IC50” value in assay [5] is listed as 2.90 ± 0.98 µg/mL.
Regarding `O=C1O[C@H]([C@@H](O)CO)C(O)=C1O` [Ascorbic acid], in assay [2], the “Ferrous ion chelating IC50” value was 3.68 ± 0.59 µg/mL. Moreover, in assay [6], the “Ferric reducing IC50” value turned out to be 2.47 ± 0.40 µg/mL. For the same compound, the “H2O2 scavenging IC50” value in assay [3] worked out at 3.31 ± 0.58 µg/mL. Also, in [7], the “Total antioxidant activity IC50” value amounted to 2.87 ± 0.10 µg/mL. For the same compound, the “DPPH scavenging IC50” value in assay [4] is reported as 4.54 ± 0.98 µg/mL. For the same compound, the “Nitric oxide scavenging IC50” value in assay [8] came out at 3.91 ± 0.80 µg/mL. Moreover, in assay [5], the “Hydroxyl radical scavenging IC50” value turned out to be 4.75 ± 0.43 µg/mL.
With `O=C(O)COC(=O)Cc1ccccc1Nc1c(Cl)cccc1Cl` [Aceclofenac, aceclofenac], the 50% inhibitory concentration (IC50) in assay [1] (setting [9]) turned out to be 21.9 ± 2.34 µg/mL (≈ 61.8 µM).
Take `C=C1CC[C@@H]2[C@](C)(CO)[C@H](O)CC[C@@]2(C)[C@@H]1C/C=C1/C(=O)OC[C@H]1O` [andrographolide]: in the assay on rats, the “Concentration of catalase, superoxide dismutase, and glutathione (antioxidant enzymes)” value is “increase”; the “Level of articular elastase, TNF-α, IL-6, CXC chemokine ligand 2, and myeloperoxidase” value is “decrease”.
In the case of `COc1ccc(O)c(C(C)(C)C)c1` [BHA, Butylated Hydroxyl Annisole], in [6], the “Ferric reducing IC50” value was 3.02 ± 0.30 µg/mL. Also, the “Nitric oxide scavenging IC50” value in assay [8] came to 5.58 ± 0.68 µg/mL.
On to `Cc1ccc(-c2ncc(Cl)cc2-c2ccc(S(C)(=O)=O)cc2)cn1` [Etoricoxib, etoricoxib], for which the half-maximal inhibitory concentration (IC50) in assay [1] (setting [9]) was 11 ± 1.65 µg/mL (≈ 30.6 µM).
For `CC(=O)Oc1ccccc1C(=O)O` [Aspirin, aspirin], the IC50 in assay [1] (setting [9]) was 21.3 ± 0.43 µg/mL (≈ 118 µM).

The record behind these values is article PMC10637841, “Evaluation of Antioxidant and Anti-Inflammatory Activities, and Metabolite Profiling of Selected Medicinal Plants of Nepal” (Journal of Tropical Medicine, 2023).
